Laboratory results reported in US20260183405A1, “SMALL MOLECULE-DRUG-CONJUGATES CLEAVABLE IN A TUMOR MICROENVIRONMENT” (priority 2022, published 2026).
Like-named read-outs stand apart in the source and are kept apart here. Starred links: 1 amine or outer side, 2 acyl side, 3 side chain; linkers in the order of their positions; H or OH if unused. Non-standard residues stand in square brackets, D forms with d. Residues, ends and D or L forms follow the SMILES beside them. Groups on a side chain read outwards from the residue. *: point of attachment. Camptothecin(7-Et) = CCc1c2c(nc3ccccc13)-c1cc3c(c(=O)n1C2)COC(=O)[C@@]3(CC)O*; Deacetylacetazolamide = NS(=O)(=O)c1nnc(N*)s1; Suc = O=C(CCC(=O)[*:2])[*:1]; PEG3 = NCCOCCOCCOCCC(=O)O

How the values were obtained:
Experiment in all cases: Cytotoxicity in vitro in the presence and absence of elastase (MTT assay)
Format in all cases: cell-based
HT29 = HT29 cells, 72 h incubation
Experimental: (§1) Cultivation of cells was performed according to standard procedures with the media recommended by the provider. The cells, in a total volume of 100 μL, were seeded in a 96-well plate with a white bottom (#3610). After a 24 h incubation period at 37° C. and 5% CO2, the medium was exchanged by adding 90 μL fresh medium. The treatment started by adding the test compound in 10 μL of culture medium to the cells in triplicates. Concentrations ranging from 10^−5 M to 10^−13 M were chosen. Two identically treated sets of samples were prepared. One set was treated with the test compound alone, whereas to the second set the compound and 10 nM elastase (NE) was added followed by a 72 h incubation period at 37° C. and 5% CO2. The proliferation was detected using the MTT assay (ATCC). At the end of the incubation period the MTT reagent was added to all samples for 4h. Lysis of the cells followed by addition of the detergent was done overnight. The formed dye was detected at 570 nm. The proliferation of untreated but otherwise identically handled cells was defined as the 100% value. The dose response curves allowed the determination of the respective IC50 values. […]

SUM149PT = SUM149PT cells, 72 h incubation
Experimental: as §1

NCI-H292 = NCI-H292 cells, 72 h incubation
Experimental: as §1

786-O = 786-O cells, 72 h incubation
Experimental: as §1

[1] = compound alone, read-out: IC50 without neutrophil elastase
[2] = with 10 nM elastase (NE), read-out: IC50 with neutrophil elastase

SMILES	IC50 (HT29; [1])	IC50 (HT29; [2])	IC50 (SUM149PT; [1])	IC50 (SUM149PT; [2])	IC50 (NCI-H292; [1])	IC50 (NCI-H292; [2])	IC50 (786-O; [1])	IC50 (786-O; [2])
CCc1c2c(nc3ccccc13)-c1cc3c(c(=O)n1C2)COC(=O)[C@@]3(CC)OC(=O)[C@@H](NC(=O)[C@@H]1CCCN1C(=O)[C@H](CC(=O)O)NC(=O)CCOCCOCCOCCNC(=O)[C@H](CCCCNC(=O)CCOCCOCCOCCNC(=O)CCC(=O)Nc1nnc(S(N)(=O)=O)s1)NC(=O)CCOCCOCCOCCNC(=O)CCC(=O)Nc1nnc(S(N)(=O)=O)s1)C(C)C [Compound 8, sodium (4S)-4,11-diethyl-3,14-dioxo-3,4,12,14-tetrahydro-1H-pyrano[3′,4′:6,7]indolizino[1,2-b]quinolin-4-yl 1-[(2S)-15-[(N2,N6-bis{14,17-dioxo-17-[(5-sulfamoyl-1,3,4-thiadiazol-2-yl)amino]-4,7,10-trioxa-13-azaheptadecanan-1-oyl}-L-lysyl)amino]-2-(carboxylatomethyl)-4-oxo-7,10,13-trioxa-3-azapentadecanan-1-oyl]-L-prolyl-L-valinate] ({Deacetylacetazolamide-Suc-PEG3}-K([PEG3-Suc-Deacetylacetazolamide])[PEG3]DPV-{Camptothecin(7-Et)})	> 1 µM	0.01 to 0.099 µM	> 1 µM	0.01 to 0.099 µM	> 1 µM	0.01 to 0.099 µM	> 1 µM	0.01 to 0.099 µM
CC[C@@]1(OC(=O)[C@@H](NC(=O)[C@@H]2CCCN2C(=O)[C@H](CC(=O)O)NC(=O)CCOCCOCCOCCNC(=O)NCCCC[C@H](NC(=O)N[C@@H](CCC(=O)O)C(=O)O)C(=O)O)C(C)C)C(=O)OCc2c1cc1n(c2=O)Cc2c-1nc1cc(F)c(C)c3c1c2[C@@H](N)CC3 [Compound 11, tetrasodium (1S,9S)-1-amino-9-ethyl-5-fluoro-4-methyl-10,13-dioxo-2,3,9,10,13,15-hexahydro-1H,12H-benzo[de]pyrano[3′,4′:6,7]indolizino[1,2-b]quinolin-9-yl 1-[(2S,23S,27S)-23,27,29-tricarboxylato-2-(carboxylatomethyl)-4,17,25-trioxo-7,10,13-trioxa-3,16,18,24,26-pentaazanonacosanan-1-oyl]-L-prolyl-L-valinate]	> 1 µM	0.01 to 0.099 µM	0.1 to 0.999 µM	0.001 to 0.0099 µM	0.1 to 0.999 µM	0.001 to 0.0099 µM	0.1 to 0.999 µM	0.001 to 0.0099 µM
CC[C@@]1(OC(=O)[C@@H](NC(=O)[C@@H]2CCCN2C(=O)[C@H](CC(=O)O)NC(=O)CCOCCOCCOCCNC(=O)CCC(=O)Nc2nnc(S(N)(=O)=O)s2)C(C)C)C(=O)OCc2c1cc1n(c2=O)Cc2c-1nc1cc(F)c(C)c3c1c2[C@@H](N)CC3 [Compound 12, sodium (1S,9S)-1-amino-9-ethyl-5-fluoro-4-methyl-10,13-dioxo-2,3,9,10,13,15-hexahydro-1H,12H-benzo[de]pyrano[3′,4′:6,7]indolizino[1,2-b]quinolin-9-yl 1-{(2S)-2-(carboxylatomethyl)-4,17,20-trioxo-20-[(5-sulfamoyl-1,3,4-thiadiazol-2-yl)amino]-7,10,13-trioxa-3,16-diazaicosanan-1-oyl}-L-prolyl-L-valinate]	> 1 µM	0.01 to 0.099 µM	0.1 to 0.999 µM	0.001 to 0.0099 µM	0.1 to 0.999 µM	0.001 to 0.0099 µM	0.1 to 0.999 µM	0.001 to 0.0099 µM
CCCNC(=O)Nc1cccc(S(=O)(=O)Nc2cccc([C@@H](CC(=O)O)NC(=O)Nc3ccc(NC(=O)NCCOCCOCCOCCC(=O)N[C@@H](CC(N)=O)C(=O)N4CCC[C@H]4C(=O)N[C@H](C(=O)NCCCN(C(=O)CO)[C@@H](c4cc(-c5cc(F)ccc5F)cn4Cc4ccccc4)C(C)(C)C)C(C)C)cc3)c2)c1 [Compound 16, N^2-(14-{4-[({(1R)-2-carboxy-1-[3-({3-[(propylcarbamoyl)amino]benzene-1-sulfonyl}amino)phenyl]ethyl}carbamoyl)amino]anilino}-14-oxo-4,7,10-trioxa-13-azatetradecanan-1-oyl}-L-asparaginyl-L-prolyl-N-{3-[{(1R)-1-[1-benzyl-4-(2,5-difluorophenyl)-1H-pyrrol-2-yl]-2,2-dimethylpropyl}(hydroxyacetyl)amino]propyl}-L-valinamide]	> 1 µM	0.001 to 0.0099 µM	0.1 to 0.999 µM	0.0001 to 0.001 µM	0.1 to 0.999 µM	0.001 to 0.0099 µM	> 1 µM	0.001 to 0.0099 µM
CCCNC(=O)Nc1cccc(S(=O)(=O)Nc2cccc([C@@H](CC(=O)O)NC(=O)Nc3ccc(NC(=O)NCCOCCOCCOCCC(=O)N[C@@H](CC(N)=O)C(=O)N4CCC[C@H]4C(=O)N[C@H](C(=O)N[C@@H](CCN(C(=O)CO)[C@@H](c4cc(-c5cc(F)ccc5F)cn4Cc4ccccc4)C(C)(C)C)C(=O)NC)C(C)C)cc3)c2)c1 [Compound 19, sodium N^2-(14-{4-[({(1R)-2-carboxylato-1-[3-({3-[(propylcarbamoyl)amino]benzene-1-sulfonyl}amino)phenyl]ethyl}carbamoyl)amino]anilino}-14-oxo-4,7,10-trioxa-13-azatetradecanan-1-oyl)-L-asparaginyl-L-prolyl-N-[(2S)-4-[{(1R)-1-[1-benzyl-4-(2,5-difluorophenyl)-1H-pyrrol-2-yl]-2,2-dimethylpropyl}(hydroxyacetyl)amino]-1-(methylamino)-1-oxobutan-2-yl]-L-valinamide]	> 1 µM	0.001 to 0.0099 µM	> 1 µM	0.0001 to 0.001 µM	> 1 µM	0.0001 to 0.001 µM	> 1 µM	0.001 to 0.0099 µM
CCc1c2c(nc3ccccc13)-c1cc3c(c(=O)n1C2)COC(=O)[C@@]3(CC)OC(=O)[C@@H](NC(=O)[C@@H]1CCCN1C(=O)[C@H](CC(=O)O)NC(=O)CCOCCOCCOCCNC(=O)NC[C@H](NC(=O)CCCCNc1cc(C)ccn1)C(=O)N[C@@H](CC(=O)O)c1cc(Cl)cc(Cl)c1)C(C)C [Compound 29, disodium (4S)-4,11-diethyl-3,14-dioxo-3,4,12,14-tetrahydro-1H-pyrano[3′,4′:6,7]indolizino[1,2-b]quinolin-4-yl 1-{(2S,20S)-20-{[(1S)-2-carboxylato-1-(3,5-dichlorophenyl)ethyl]carbamoyl}-2-(carboxylatomethyl)-26-[(4-methylpyridin-2-yl)amino]-4,17,22-trioxo-7,10,13-trioxa-3,16,18,21-tetraazahexacosanan-1-oyl}-L-prolyl-L-valinate]	> 1 µM	0.01 to 0.099 µM	0.1 to 0.999 µM	0.001 to 0.0099 µM	0.1 to 0.999 µM	0.001 to 0.0099 µM	0.1 to 0.999 µM	0.001 to 0.0099 µM
CCCNC(=O)Nc1cccc(S(=O)(=O)Nc2cccc([C@@H](CC(=O)O)NC(=O)Nc3ccc(NC(=O)NCCOCCOCCOCCC(=O)N[C@@H](CC(=O)O)C(=O)N4CCC[C@H]4C(=O)N[C@H](C(=O)OCCCNC(=O)[C@H](Cc4ccccc4)NC(=O)[C@H](C)[C@@H](OC)[C@@H]4CCCN4C(=O)C[C@@H](OC)[C@H]([C@@H](C)CC)N(C)C(=O)[C@@H](NC(=O)[C@H](C(C)C)N(C)C)C(C)C)C(C)C)cc3)c2)c1 [Compound 30]	0.1 to 0.999 µM	0.001 to 0.0099 µM	0.01 to 0.099 µM	0.001 to 0.0099 µM	0.01 to 0.099 µM	0.001 to 0.0099 µM	0.1 to 0.999 µM	0.01 to 0.099 µM
CCCNC(=O)Nc1cccc(S(=O)(=O)Nc2cccc([C@@H](CC(=O)O)NC(=O)Nc3ccc(NC(=O)NCCOCCOCCOCCC(=O)N[C@@H](CC(=O)O)C(=O)N4CCC[C@H]4C(=O)N[C@H](C(=O)NCCC(C)(C)C(=O)OCCCNC(=O)[C@H](Cc4ccccc4)NC(=O)[C@H](C)[C@@H](OC)[C@@H]4CCCN4C(=O)C[C@@H](OC)[C@H]([C@@H](C)CC)N(C)C(=O)[C@@H](NC(=O)[C@H](C(C)C)N(C)C)C(C)C)C(C)C)cc3)c2)c1 [Compound 31]	0.01 to 0.099 µM	0.0001 to 0.001 µM	0.01 to 0.099 µM	0.0001 to 0.001 µM	0.01 to 0.099 µM	0.0001 to 0.001 µM	0.1 to 0.999 µM	0.01 to 0.099 µM
CCCNC(=O)Nc1cccc(S(=O)(=O)Nc2cccc([C@@H](CC(=O)O)NC(=O)Nc3ccc(NC(=O)NCCOCCOCCOCCC(=O)N[C@@H](CC(=O)O)C(=O)N4CCC[C@H]4C(=O)N[C@H](C(=O)OC(C)(C)CCNC(=O)[C@H](Cc4ccccc4)NC(=O)[C@H](C)[C@@H](OC)[C@@H]4CCCN4C(=O)C[C@@H](OC)[C@H]([C@@H](C)CC)N(C)C(=O)[C@@H](NC(=O)[C@H](C(C)C)N(C)C)C(C)C)C(C)C)cc3)c2)c1 [Compound 32]	0.01 to 0.099 µM	0.001 to 0.0099 µM	0.01 to 0.099 µM	0.001 to 0.0099 µM	0.01 to 0.099 µM	0.001 to 0.0099 µM	0.1 to 0.999 µM	0.01 to 0.099 µM
